Laboratory results taken from patent publication US12600726B2, “Antagonists of the muscarinic acetylcholine receptor M4” (Vanderbilt University, priority 2017, dated 2026).

Columns and labels:
Human M4 = target: T1, Human M4 (Homo sapiens, UniProt P08173); test: mAChR M4 cell-based functional calcium flux assay (human M4/Gqi5/CHO cells); settings: for Emin (human M4): % ACh maximum at 30 μM; for IC50: decrease of the response to an EC80 concentration of acetylcholine
T1 construct: expressed in transfected cells; host or cells: CHO-K1 (ATCC), stably expressing M4 and Gqi5
T1 sequence (P08173 1-479): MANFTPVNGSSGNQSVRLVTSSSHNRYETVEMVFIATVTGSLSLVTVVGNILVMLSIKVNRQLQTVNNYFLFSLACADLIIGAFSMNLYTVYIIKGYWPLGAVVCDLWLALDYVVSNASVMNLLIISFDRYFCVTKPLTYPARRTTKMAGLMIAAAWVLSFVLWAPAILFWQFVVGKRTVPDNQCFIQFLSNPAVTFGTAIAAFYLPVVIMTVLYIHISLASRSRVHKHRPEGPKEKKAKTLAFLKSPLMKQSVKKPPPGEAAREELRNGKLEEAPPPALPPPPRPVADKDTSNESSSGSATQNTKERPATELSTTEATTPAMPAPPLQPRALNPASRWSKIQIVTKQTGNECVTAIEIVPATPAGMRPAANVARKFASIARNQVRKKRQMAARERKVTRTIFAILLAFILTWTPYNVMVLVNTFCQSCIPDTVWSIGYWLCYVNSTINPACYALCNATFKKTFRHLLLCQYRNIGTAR
Experimental: (§1) Human, rat, or mouse M4. cDNA, along with the chimeric G protein Gqi5, were transfected into Chinese hamster ovary (CHO-K1) cells purchased from the American Type Culture Collection using Lipofectamine2000. M4/Gqi5/CHO cells were grown in Ham's F-12 medium containing 10% heat-inactivated fetal bovine serum (FBS), 20 mM HEPES, 500 μg/mL G418 sulfate, and 200 μg/mL Hygromycin B.
(§2) For high throughput measurement of agonist-evoked increases in intracellular calcium, CHO-K1 cells stably expressing muscarinic receptors were plated in growth medium lacking G418 and hygromycin at 15,000 cells/20 μL/well in Greiner 384-well black-walled, tissue culture (TC)-treated, clear-bottom plates (VWR). Cells were incubated overnight at 37° C. and 5% CO2. The next day, cells were washed using an ELX 405 (BioTek) with assay buffer; the final volume was then aspirated to 20 μL. Next, 20 μL of a 2.3 μM stock of Fluo-4/acetoxymethyl ester (Invitrogen, Carlsbad, CA), prepared as a 2.3 mM stock in DMSO and mixed in a 1:1 ratio with 10% (w/v) Pluronic F-127 and diluted in assay buffer, was added to the wells and the cell plates were incubated for 50 min at 37° C. and 5% CO2. Dye was removed by washing with the ELX 405 and the final volume was aspirated to 20 μL. Compound master plates were formatted in a 10 point concentration-response curve (CRC) format (1:3 dilutions) in 100% DMSO with a starting concentration of 10 or 1 mM using a BRAVO liquid handler (Agilent). Test compound CRCs were then transferred to daughter plates (240 nL) using the Echo acoustic plate reformatter (Labcyte, Sunnyvale, CA) and then diluted into assay buffer (40 μL) to a 2× stock using a Thermo Fisher Combi (Thermo Fisher Scientific, Waltham, MA).
(§3) Calcium flux was measured using the Functional Drug Screening System (FDSS) 6000 or 7000 (Hamamatsu Corporation, Tokyo, Japan) as an increase in the fluorescent static ratio. Compounds were applied to cells (20 μL, 2×) using the automated system of the FDSS at 2 seconds into the protocol and the data were collected at 1 Hz. At 143 s, 10 μL of an EC20 concentration of the muscarinic receptor agonist acetylcholine was added (5×), followed by the addition of 12 μL of an EC80 concentration of acetylcholine at the 268 s time point (5×). Agonist activity was analyzed as a concentration-dependent increase in calcium mobilization upon compound addition. Positive allosteric modulator activity was analyzed as a concentration-dependent increase in the EC20 acetylcholine response. Antagonist activity was analyzed as a concentration-dependent decrease in the EC80 acetylcholine response; for the purposes of the tables herein, an IC50 (inhibitory concentration 50) was calculated as a concentration-dependent decrease of the response elicited by an EC80 concentration of acetylcholine. Concentration-response curves were generated using a four-parameter logistical equation in XLFit curve fitting software (IDBS, Bridgewater, NJ) for Excel (Microsoft, Redmond, WA) or Prism (GraphPad Software, Inc., San Diego, CA) or the Dotmatics software platform (Dotmatics, Bishop's Stortford, UK).
(§4) Compounds were synthesized as described above. Activity (IC50 and Emin) was determined in the mAChR M4 cell-based functional assay as described above and the data are shown in Table 2 and Table 3. The compound number corresponds to the compound numbers used in the examples and Tables 1 and 1.1.

Rat M4 = target: T2, Rat M4 (Rattus norvegicus, UniProt P08485); test: mAChR M4 cell-based functional calcium flux assay (rat M4/Gqi5/CHO cells); settings: for Emin (rat M4): % ACh maximum at 30 μM
T2 construct: expressed in transfected cells; host or cells: CHO-K1 (ATCC), stably expressing M4 and Gqi5
T2 sequence (P08485 1-478): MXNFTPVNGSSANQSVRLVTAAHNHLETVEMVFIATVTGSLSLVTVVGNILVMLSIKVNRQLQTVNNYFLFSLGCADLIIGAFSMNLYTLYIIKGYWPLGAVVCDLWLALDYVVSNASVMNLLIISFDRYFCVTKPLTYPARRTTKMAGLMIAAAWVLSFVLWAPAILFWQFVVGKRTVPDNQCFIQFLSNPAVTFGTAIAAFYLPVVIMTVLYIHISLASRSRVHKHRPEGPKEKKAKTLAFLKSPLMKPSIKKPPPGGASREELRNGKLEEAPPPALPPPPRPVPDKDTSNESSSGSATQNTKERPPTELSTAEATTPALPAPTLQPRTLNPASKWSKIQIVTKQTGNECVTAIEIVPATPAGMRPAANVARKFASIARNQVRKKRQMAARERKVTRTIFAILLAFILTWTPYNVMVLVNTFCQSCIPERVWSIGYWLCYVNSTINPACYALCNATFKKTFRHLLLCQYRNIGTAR
Experimental: as §1, §2, §3, §4

[1] = decrease of the response to an EC80 concentration of acetylcholine
[2] = cells printed in μM, decrease of the EC80 acetylcholine response

Structure (SMILES) | Emin (human M4) (Human M4) | IC50 (Human M4) | Emin (rat M4) (Rat M4) | IC50 (Rat M4; [1]) | IC50 (Rat M4; [2])
Cc1ccncc1-c1ccc(NCC2CC23CCN(CCC(C)(C)C)CC3)nn1 (centres unmarked) [Compound 25, N-[[6-(3,3-dimethylbutyl)-6-azaspiro[2.5]octan-2-yl]methyl]-6-(4-methyl-3-pyridyl)pyridazin-3-amine] | 2.93% | 4.35 nM | 3.75% | 0.0778 µM | –
Cc1nn(C)cc1-c1ccc(NCC2CC23CCN(CC(c2ccccc2)c2ccccc2)CC3)nn1 (centres unmarked) [Compound 59, 6-(1,3-dimethylpyrazol-4-yl)-N-[[6-(2,2-diphenylethyl)-6-azaspiro[2.5]octan-2-yl]methyl]pyridazin-3-amine] | 3.31% | 543 nM | 4.58% | 1.88 µM | –
CC(C)(C)CCN1CCC2(CC1)CC2CNc1ccc(-c2ccc(F)c(F)c2)nn1 (centres unmarked) [Compound 32, 6-(3,4-difluorophenyl)-N-[[6-(3,3-dimethylbutyl)-6-azaspiro[2.5]octan-2-yl]methyl]pyridazin-3-amine] | 2.71% | 74.9 nM | 2.80% | 0.168 µM | –
CC(=O)Nc1ccc(-c2ccc(NC[C@@H]3CC34CCN(Cc3ncccc3C)CC4)nn2)cc1 [Compound 122, N-[4-[6-[[(2R)-6-[(3-methyl-2-pyridyl)methyl]-6-azaspiro[2.5]octan-2-yl]methylamino]pyridazin-3-yl]phenyl]acetamide] | 12% | 1410 nM | 12% | 0.32 µM | –
Cc1cnn(C)c1-c1ccc(N(C)CC2CC23CCN(CCC(C)(C)C)CC3)nn1 (centres unmarked) [Compound 76, 6-(1,4-dimethyl-1H-pyrazol-5-yl)-N-((6-(3,3-dimethylbutyl)-6-azaspiro[2.5]octan-1-yl)methyl)-N-methylpyridazin-3-amine] | 4% | 99.6 nM | 7% | 0.693 µM | –
CC(C)(C)CCN1CCC2(CC1)CC2CNc1ccc(Cl)nn1 (centres unmarked) [Compound 20, 6-chloro-N-[[6-(3,3-dimethylbutyl)-6-azaspiro[2.5]octan-2-yl]methyl]pyridazin-3-amine] | 3.47% | 270 nM | 5.14% | 1.09 µM | –
Cc1nn(C)c(C)c1-c1ccc(NCC2CC23CCN(CCC(C)(C)C)CC3)nn1 (centres unmarked) [Compound 36, N-[[6-(3,3-dimethylbutyl)-6-azaspiro[2.5]octan-2-yl]methyl]-6-(1,3,5-trimethylpyrazol-4-yl)pyridazin-3-amine] | 2.61% | 6.1 nM | 4.52% | 0.0328 µM | –
Cc1cnn(C)c1-c1ccc(NC(=O)C2CC23CCN(CC(C)C(C)(C)C)CC3)nn1 (centres unmarked) [Compound 7, N-[6-(2,4-dimethylpyrazol-3-yl)pyridazin-3-yl]-6-(2,3,3-trimethylbutyl)-6-azaspiro[2.5]octane-2-carboxamide] | 6.29% | 2240 nM | 22.7% | – | > 10 µM
CC(C)(C)CCN1CCC2(CC1)CC2CNc1ccc(-c2ccc(F)cc2Cl)nn1 (centres unmarked) [Compound 24, 6-(2-chloro-4-fluoro-phenyl)-N-[[6-(3,3-dimethylbutyl)-6-azaspiro[2.5]octan-2-yl]methyl]pyridazin-3-amine] | 2.81% | 42.8 nM | 3.19% | 0.159 µM | –
CC(C)(C)CCN1CCC2(CC1)CC2CNc1ccc(-c2ccc3ccccc3c2)nn1 (centres unmarked) [Compound 47, N-[[6-(3,3-dimethylbutyl)-6-azaspiro[2.5]octan-2-yl]methyl]-6-(2-naphthyl)pyridazin-3-amine] | 2.97% | 208 nM | 2.90% | 0.39 µM | –
CC(C)(C)CCN1CCC2(CC1)CC2CNc1ccc(-c2ccc(F)cc2)nn1 (centres unmarked) [Compound 2, N-((6-(3,3-Dimethylbutyl)-6-azaspiro[2.5]octan-1-yl)methyl)-6-(4-fluorophenyl)pyridazin-3-amine] | 2.54% | 42.4 nM | 3.35% | 0.159 µM | –
Cc1nn(C)cc1-c1nnc(NCC2CC23CCN(Cc2ccccc2)CC3)c2ccccc12 (centres unmarked) [Compound 88, N-[(6-benzyl-6-azaspiro[2.5]octan-2-yl)methyl]-4-(1,3-dimethylpyrazol-4-yl)phthalazin-1-amine] | 5% | 265 nM | 6% | 1.25 µM | –
Fc1ccc(Cl)c(-c2ccc(NCC3CC34CCN(CC3CCCCC3)CC4)nn2)c1 (centres unmarked) [Compound 14, 6-(2-chloro-5-fluoro-phenyl)-N-[[6-(cyclohexylmethyl)-6-azaspiro[2.5]octan-2-yl]methyl]pyridazin-3-amine] | 1.95% | 17.7 nM | 2.42% | 0.228 µM | –
Cn1nc(C(F)(F)F)cc1-c1ccc(NCC2CC23CCN(CCC(C)(C)C)CC3)nn1 (centres unmarked) [Compound 39, N-[[6-(3,3-dimethylbutyl)-6-azaspiro[2.5]octan-2-yl]methyl]-6-[2-methyl-5-(trifluoromethyl)pyrazol-3-yl]pyridazin-3-amine] | 2.60% | 13.7 nM | 3.42% | 0.0581 µM | –
Fc1ccc(Cl)c(-c2ccc(OCC3CC34CCN(CC3CCCCC3)CC4)nn2)c1 (centres unmarked) [Compound 87, 2-[[6-(2-chloro-5-fluoro-phenyl)pyridazin-3-yl]oxymethyl]-6-(cyclohexylmethyl)-6-azaspiro[2.5]octane] | – | – | 3% | 1.05 µM | –
CC(C)(C)CCN1CCC2(CC1)CC2CNc1ccc(C2=CCCC2)nn1 (centres unmarked) [Compound 90, 6-(cyclopenten-1-yl)-N-[[6-(3,3-dimethylbutyl)-6-azaspiro[2.5]octan-2-yl]methyl]pyridazin-3-amine] | – | – | 5% | 0.347 µM | –
Cc1cnn(C)c1-c1ccc(NCC2CC23CCN(CC2CCOCC2)CC3)nn1 (centres unmarked) [Compound 74, 6-(2,4-dimethylpyrazol-3-yl)-N-[[6-(tetrahydropyran-4-ylmethyl)-6-azaspiro[2.5]octan-2-yl]methyl]pyridazin-3-amine] | – | – | 29.9% | – | > 10 µM
